Assays:
Assay type in all cases: cell-based
RAR beta = molecular target: T1, RAR beta (Homo sapiens, UniProt P10826); experiment: Transactivation test, HeLa cells stably transfected with RAR beta ER-DBD and ERE-luciferase reporter; conditions: for AC50: at the reference ligand concentration that gives 80% activation; for Kd: crossed curves against reference antagonist, Schild regression, read-out: RAR beta Kd app
T1 sequence (P10826 183-417 limits assumed): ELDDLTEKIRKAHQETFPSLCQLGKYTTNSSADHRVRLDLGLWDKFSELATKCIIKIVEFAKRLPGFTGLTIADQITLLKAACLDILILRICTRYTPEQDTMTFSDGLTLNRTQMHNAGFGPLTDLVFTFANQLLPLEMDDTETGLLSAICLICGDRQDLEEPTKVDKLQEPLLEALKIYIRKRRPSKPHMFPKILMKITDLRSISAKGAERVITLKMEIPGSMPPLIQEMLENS
Protocol: (§1) The activation of receptors with an agonist (activator) in HeLa cells leads to the expression of a reporter gene, luciferase, which, in the presence of a substrate, generates light. The activation of the receptors may thus be measured by quantifying the luminescence produced after incubating the cells in the presence of a reference antagonist. The activating products displace the antagonist from its site, thus permitting activation of the receptor. The activity is measured by quantifying the increase in light produced. This measurement makes it possible to determine the activating activity of the compounds according to the invention.
(§2) In this study, a constant is determined which is the affinity of the molecule for the receptor. Since this value can fluctuate depending on the basal activity and the expression of the receptor, it is referred to as the Kd apparent (KdApp).
(§3) To determine this constant, “crossed curves” of the test product against a reference antagonist, 4-(5,5-dimethyl-8-p-tolyl-5,6-dihydro-2-naphthalen-2-ylethynyl)benzoic acid, are performed in 96-well plates. The test product is used at 10 concentrations and the reference antagonist at 7 concentrations. In each well, the cells are in contact with a concentration of the test product and a concentration of the reference antagonist, 4-(5,5-dimethyl-8-p-tolyl-5,6-dihydro-2-naphthalen-2-ylethynyl)benzoic acid. Measurements are also taken for the total agonist (4-[2-(5,5,8,8-tetramethyl-5,6,7,8-tetrahydro-2-naphthyl)propenyl]benzoic acid) and inverse agonist, 4-{(E)-3-[4-(4-tert-butylphenyl)-5,5,8,8-tetramethyl-5,6,7,8-tetrahydro-2-naphthyl]-3-oxopropenyl}benzoic acid, controls.
(§4) These crossed curves make it possible to determine the AC50 values (concentration at which 50% activation is observed) for the reference ligand at various concentrations of test product. These AC50 values are used to calculate the Schild regression by plotting a straight line corresponding to the Schild equation (“Quantitation in Receptor Pharmacology” Terry P. Kenakin, Receptors and Channels, 2001, 7, 371-385).
(§5) In the case of an agonist, an AC50 value (concentration that gives 50% of the activity) is calculated by plotting the curve of the product at the concentration of the reference ligand that gives 80% activation.
(§6) The HeLa cell lines used are stable transfectants containing the plasmids ERE-μGlob-Luc-SV-Neo (reporter gene) and RAR (α, β, γ) ER-DBD-puro. These cells are inoculated into 96-well plates at a rate of 10 000 cells per well in 100 μl of DMEM medium without phenol red, and supplemented with 10% defatted calf serum. […]
(§7) The culture medium is removed by turning over and 100 μl of a 1:1 PBS/luciferin mixture is added to each well. After 5 minutes, the plates are read using the luminescence reader.

RAR gamma = molecular target: T2, RAR gamma (Homo sapiens, UniProt P13631); experiment: Transactivation test, HeLa cells stably transfected with RAR gamma ER-DBD and ERE-luciferase reporter; conditions: for AC50: at the reference ligand concentration that gives 80% activation; for Kd: crossed curves against reference antagonist, Schild regression, read-out: RAR gamma Kd app
T2 sequence (P13631 185-419 limits assumed): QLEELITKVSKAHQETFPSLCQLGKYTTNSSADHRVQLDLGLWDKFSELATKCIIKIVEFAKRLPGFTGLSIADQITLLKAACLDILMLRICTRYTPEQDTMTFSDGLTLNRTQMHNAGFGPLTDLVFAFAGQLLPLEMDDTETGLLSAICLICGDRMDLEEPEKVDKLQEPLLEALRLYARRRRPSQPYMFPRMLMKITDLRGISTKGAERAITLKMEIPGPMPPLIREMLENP
Protocol: as §1, §2, §3, §4, §5, §6, §7

RAR alpha = molecular target: T3, RAR alpha (Homo sapiens, UniProt P10276); experiment: Transactivation test, HeLa cells stably transfected with RAR alpha ER-DBD and ERE-luciferase reporter
T3 sequence (P10276 183-417 limits assumed): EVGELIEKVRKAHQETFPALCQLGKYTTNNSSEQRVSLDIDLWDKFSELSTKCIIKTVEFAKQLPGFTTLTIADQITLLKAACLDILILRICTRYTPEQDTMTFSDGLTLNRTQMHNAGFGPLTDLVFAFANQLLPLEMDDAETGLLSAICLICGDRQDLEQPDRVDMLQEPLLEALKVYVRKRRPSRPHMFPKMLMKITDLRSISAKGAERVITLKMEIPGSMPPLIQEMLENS
Protocol: as §1
In this study, a constant is determined which is the affinity of the molecule for the receptor. […]
as §4
In the case of an agonist, an AC50 value (concentration that gives 50% of the activity) is calculated by plotting the curve of the product at the concentration of the reference ligand that gives 80% activation. […]

AC50 (RAR beta) [nM]	Kd (RAR beta) [nM]	AC50 (RAR gamma) [nM]	Kd (RAR gamma) [nM]	AC50 (RAR alpha; at the reference ligand concentration that gives 80% activation) [nM]	Kd (RAR alpha; crossed curves against reference antagonist, Schild regression, read-out: RAR alpha Kd app) [nM]	SMILES
2500	500	80	60	–	–	CCN(CC)c1ccc(C(COc2ccc(C(=O)O)cc2)=NO)cc1C(C)(C)C [Ex 1, 4-[2-(3-tert-Butyl-4-diethylaminophenyl)-2-hydroxyiminoethoxy]benzoic acid]
1000	500	4	4	5000	5000	CCN(CC)c1ccc(C(COc2ccc(C(=O)O)c(O)c2)=NO)cc1C(C)(C)C [Ex 2, 4-[2-(3-tert-Butyl-4-diethylaminophenyl)-2-hydroxyiminoethoxy]-2-hydroxybenzoic acid]
